The values below come from patent publication US20240307345A1, “R-MDMA and S-MDMA TO ASSIST PSYCHOTHERAPY” (Universitatsspital Basel, priority 2022, published 2024).

SMILES strings stand for the structures. Entries after “also recorded” stand apart in the source; their conditions may differ.

Series [1] has as its system healthy subjects. Briefly: Acute subjective effects on the Visual Analog Scale (VAS). The class given is in vivo, human. As to the method:
(§1) Study design: The present study compares the acute subjective, physiological and endocrine effects of S-MDMA (125 mg), R-MDMA (125 and 250 mg), MDMA (125 mg) using a placebo-controlled double-blind 5-period cross-over design in 24 healthy subjects. Conditions are 1.) R-MDMA 125 mg, 2). R-MDMA 250 mg, 3) S-MDMA 125 mg, 4) MDMA 125 mg, 5) placebo. Treatment order is counterbalanced. Washout periods between substance administrations are at least 10 days. Study days include a 10-hour study session with a subsequent single measurement (short visit) the next morning (24 hours after drug administration).
Study procedures: The study takes place at the University Hospital Basel. Each of the test sessions last from 8:00 until 18:00 with a short visit the next morning (24 hours after application). An indwelling intravenous catheter is inserted into a subcutaneous vein of the forearm and baseline psychometric measures are obtained. Administration of the substance is at 9:00. Outcome measures (see below) are repeatedly assessed during the study session. Subjects are under continuous medical supervision until any alterations of consciousness have completely subsided and they leave the research facility.
Psychometric assessments: Visual Analog Scale (VAS): VASs is repeatedly used to assess subjective alterations in consciousness over time. Single scales are presented as 100 mm horizontal lines marked with “not at all” on the left and “extremely” on the right. The following VAS items are used: “any drug effect”, “good drug effect”, “bad drug effect”, “stimulated”, “liking”, “happy”, “content”, “talkative”, “open”, “trust”, “feeling close to others”, “anxiety”, “alteration of vision”, “alterations of hearing”, “sounds seem to influence what I see”, “alteration of sense of time”, “the boundaries between myself and my surroundings seem to blur”, “want to be with other people”, and “want to be alone”. Scales are administered before and repeatedly after substance administration and take approximately 2 minutes to fill out. The maximal ratings (Emax, 0-100) and areas under the effect-time curve (AUEC) are defined for each VAS and Emax and AUEC values compared between treatments using analysis of variance. 5-Dimensions of Altered States of Consciousness (5D-ASC): The 5 Dimensions of Altered States of Consciousness (5D-ASC) Scale is a questionnaire containing visual analog scales for 94 items (Studerus et al., 2010). The instrument contains five scales assessing mood, anxiety, derealization, depersonalization, changes in perception, auditory alterations, and reduced vigilance. The scale is well-validated (Studerus et al., 2010) and used internationally to evaluate effects of many other psychoactive substances. The overall psychedelic experience is reflected by the total […] score. Each item of the scale is scored on a 0-100 mm VAS. The attribution of the individual items to the subscales of the 5D-ASC is analyzed according to (Studerus et al., 2010). The 5D-ASC scale is administered once at the end of the session and subjects are instructed to retrospectively rate peak alterations that have been experienced during the study session. Adiective Mood Rating Scale (AMRS): The Adjective Mood Rating Scale (AMRS or EWL60S) is a 60-item Likert scale that allows repeated assessment of mood in 6 dimensions: Activation, inactivation, well-being, anxiety/depressed mood, extra- and introversion, and emotional excitability. The German EWL60S version is used. The AMRS consists of subscales measuring “activation,” “positive mood,” “extraversion,” “introversion,” “inactivation,” and “emotional excitability. The scale has previously been used to evaluate effects of many other psychoactive substances. Emax and AUEC scores will be defined for each subscale and compared between treatments using analysis of variance. The AMRS is administered repeatedly throughout the study session and once 3 days after each session. […]

Series [2] relates to healthy subjects. The experiment in a line: Effects on mood on the Adjective Mood Rating Scale (AMRS). The class given is in vivo, human. How it is done:
as §1
Psychometric assessments: Visual Analog Scale (VAS): VASs is repeatedly used to assess subjective alterations in consciousness over time. Single scales are presented as 100 mm horizontal lines marked with “not at all” on the left and “extremely” on the right. The following VAS items are used: “any drug effect”, “good drug effect”, “bad drug effect”, “stimulated”, “liking”, “happy”, “content”, “talkative”, “open”, “trust”, “feeling close to others”, “anxiety”, “alteration of vision”, “alterations of hearing”, “sounds seem to influence what I see”, “alteration of sense of time”, “the boundaries between myself and my surroundings seem to blur”, “want to be with other people”, and “want to be alone”. Scales are administered before and repeatedly after substance administration and take approximately 2 minutes to fill out. The maximal ratings (Emax, 0-100) and areas under the effect-time curve (AUEC) are defined for each VAS and Emax and AUEC values compared between treatments using analysis of variance. 5-Dimensions of Altered States of Consciousness (5D-ASC): The 5 Dimensions of Altered States of Consciousness (5D-ASC) Scale is a questionnaire containing visual analog scales for 94 items (Studerus et al., 2010). The instrument contains five scales assessing mood, anxiety, derealization, depersonalization, changes in perception, auditory alterations, and reduced vigilance. The scale is well-validated (Studerus et al., 2010) and used internationally to evaluate effects of many other psychoactive substances. The overall psychedelic experience is reflected by the total […] score. Each item of the scale is scored on a 0-100 mm VAS. The attribution of the individual items to the subscales of the 5D-ASC is analyzed according to (Studerus et al., 2010). The 5D-ASC scale is administered once at the end of the session and subjects are instructed to retrospectively rate peak alterations that have been experienced during the study session. Adiective Mood Rating Scale (AMRS): The Adjective Mood Rating Scale (AMRS or EWL60S) is a 60-item Likert scale that allows repeated assessment of mood in 6 dimensions: Activation, inactivation, well-being, anxiety/depressed mood, extra- and introversion, and emotional excitability. The German EWL60S version is used. The AMRS consists of subscales measuring “activation,” “positive mood,” “extraversion,” “introversion,” “inactivation,” and “emotional excitability. The scale has previously been used to evaluate effects of many other psychoactive substances. Emax and AUEC scores will be defined for each subscale and compared between treatments using analysis of variance. The AMRS is administered repeatedly throughout the study session and once 3 days after each session. States of Consciousness Questionnaire (SCQ): In the SCQ, 100-items are rated on a six-point scale. Forty-three items embedded into this questionnaire comprise the Mystical Experience Questionnaire (MEQ) (MacLean et al., 2011) which is sensitive to the effects of psychedelic substances such as LSD. […]

The subject of series [3] is healthy subjects. The experiment in a line: Clinical cross-over study, overall comparison of the substances. The class given is in vivo, human. Particulars: for dose of more equivalent strength to 125 mg (±)-MDMA: based on the results of the present study; for acute subjective effects and adverse effects: conclusion over the doses tested. As to the method: as §1
The conditions of series [4]: mice; cited from earlier work.

Take `CN[C@H](C)Cc1ccc2c(c1)OCO2` [R-MDMA, R(−)-MDMA]: the “VAS Emax for “feeling high”” value in series [1] (250 mg R-MDMA compared with 125 mg (±)-MDMA, 24 subjects) is “lower Emax values”. Also, the “VAS “drug high”, “happy”, “content”, “talkative”, “open”, “trust” and “I feel close to others”” value in series [1] (250 mg R-MDMA versus (±)-MDMA and S-MDMA) is on record as “lower effects”. For the same compound, the “effects on the AMRS” value in series [2] (125 mg) was “comparable effects”. Also, the “AMRS “Extraversion”” value in series [2] (125 mg R-MDMA versus (±)-MDMA and S-MDMA) was “less”. Besides, in series [2] (250 mg), the “effects on the AMRS” value is recorded as “comparable effects”. Besides, the “AMRS “Introversion”” value in series [2] (250 mg R-MDMA versus (±)-MDMA) is on record as “significant more”. Besides, the “cardio and psychostimulant effects / properties” value in series [3] (R-MDMA (125 and 250 mg) compared with S-MDMA) was “lower cardio and psychostimulant effects; also recorded: less cardiostimulant and psychostimulant properties”. For the same compound, in series [3], the “dose of more equivalent strength to 125 mg (±)-MDMA” value is 300 mg; the “acute subjective effects and adverse effects” value is recorded as “overall comparable”. In series [3] (within the dose range tested (125 and 250 mg)), the “effect on social interaction and connectedness” value is on record as “less pronounced”. For the same compound, in series [4], the “enantiomer converted to the other enantiomer after administration” value was 3.5%.

As for `CN[C@@H](C)Cc1ccc2c(c1)OCO2` [S-MDMA, S(+)-MDMA], in series [1] (125 mg S-MDMA compared to (±)-MDMA), the “how much stimulated participants felt” value is “no significant difference”. Also, the “how much stimulated participants felt” value in series [1] (125 mg S-MDMA compared to both doses of R-MDMA) is on record as “higher values”. Moreover, in series [1] (125 mg S-MDMA compared with 125 mg (±)-MDMA, 24 subjects), the “VAS Emax for “bad drug effects,” “alteration of vision” and “audio-visual synesthesia”” value is “higher Emax values”. Moreover, in series [1] (125 mg S-MDMA compared with both R-MDMA doses and (±)-MDMA), the “VAS items “alteration of vision” and “audio-visual synesthesia”” value is “higher increases”. In series [1] (125 mg S-MDMA versus 250 mg R-MDMA), the “all VAS items except “fear”” value is “significant stronger effects”. In addition, the “VAS “any drug effects”, “good drug effects”, “I like the effect”, “stimulation”, “alteration of time” and “ego dissolution”” value in series [1] (125 mg S-MDMA versus 125 and 250 mg R-MDMA) is “more than 125 and 250 mg R-MDMA”. Further, the “VAS “bad drug effects,” “alteration of vision” and “audio-visual synesthesia”” value in series [1] (125 mg S-MDMA versus (±)-MDMA and 250 mg R-MDMA) is on record as “stronger”. Besides, in series [1] (125 mg, compared with both R-MDMA doses and placebo), the “VAS “talkative,” “open,” “trust,” and “I feel close to others”” value is listed as “higher values”. Moreover, the “feelings of “drug high”” value in series [1] (S-MDMA compared with R-MDMA, abuse potential) was “greater”. The “effects on the AMRS” value in series [2] (125 mg) was “comparable effects”. For the same compound, the “AMRS “Emotional excitation”” value in series [2] (125 mg S-MDMA versus both doses of R-MDMA) is on record as “more”. For the same compound, in series [3], the “dose of more equivalent strength to 125 mg (±)-MDMA” value is 100 mg; the “acute subjective effects and adverse effects” value is listed as “overall comparable”. Moreover, the “enantiomer converted to the other enantiomer after administration” value in series [4] is on record as 9.9%.
